Test results from US20210046143A1, “METHOD FOR TREATMENT OF THE HUMAN BODY BY THERAPY BY ADMINISTERING A COMPOSITION COMPRISING A PLANT EXTRACT OF THE SPECIE HEDYCHIUM CORONARIUM” (Societe D'exploitation De Produits Pour Les Industries …, priority 2016, published 2021).

Key:
Type in all cases: cell-based
[1] = system: normal human keratinocytes; experiment: ROS detection with H2DCFDA probe in normal human keratinocytes; settings: 20 minutes
Source text: • 1)—Background Information The aim of the present evaluation was to evaluate the antioxidant and antipollution effects of the extract HCR, against oxidative stress in normal human cultured keratinocytes extracted from abdominal plastic surgery (donor), using the H2DCFDA probe. […] It is cell-permeant and stable. When it penetrates the cell, acetate groups are cleaved by intracellular esterases. The resulting product is the dichlorodihydrofluorescein (or H2DCF), non-fluorescent. […] The probe oxidation is not specific of one type of ROS. The fluorescence is detected at wavelengths of 490 nm (excitation) and 525 nm (emission). […] A XTT assay was previously performed, to check the cells viability, in order to determine the concentrations to be tested, as described in Example 2. • 2)—Evaluation of Antioxidant Effect (H2DCFDA Probe) Normal human keratinocytes were seeded in 96-well microplates and are then treated with the test compound to be tested for 24 hours, before adding the fluorescent probe for detection of ROS and stimulating or not by the pollutant or hydrogen peroxide. This test is based on the use of a detection system, a probe, which is degraded and fluoresces on contact with ROS. […] After incubation, fluorescence was read at 490 nm (excitation) and 525 nm (emission) wavelengths (Tecan Safire II reader). Data are expressed as RFU (fluorescence units). […]

[2] = system: ATP production by normal human fibroblasts (NHF); experiment: ATP titration in fibroblasts, UVA-irradiated or not; settings: 500 μM
Description: (§1) a)—In order to check the effects of UV and the tested product on cells metabolism, ATP and NAD^+/NADH titrations were performed. • (i)—Cells were seeded into 96-wells plates (at a cell density of 5,000 cells per well, i.e. 15,000 NHF/cm^2), in the same medium as previously described, one day before treatment. Then the treatment and irradiation timing was the same: first application for twenty-four hours (in medium without sera), then UVA-irradiation or not (same dose) and finally a second treatment for another twenty-four hours. As formerly, from the beginning to the end of the experiment, cells were incubated at 37° C./5% CO2. […] Measured quantity of this product (absorbance) is proportional to total NAD (NAD^+ and NADH) in each sample. • (v)—The ATP assay kit is an ATP monitoring system based on firefly (Photinus pyralis) luciferase. Added luciferase and D-luciferin react with ATP in samples to produce light, which measure (luminescence) is proportional to the ATP concentration. • b)—Raw data of both ATP and NAD^+/NADH titrations, i.e. luminescence units (RLU) or OD measurements obtained for respective standards, were plotted on graphics to determine standard curves. Then, the concentrations of ATP or NAD^+/NADH measured in the samples were determined. Quantitative values of each condition were averaged. […]

[3] = system: mitochondria network of normal human fibroblasts (NHF); experiment: Mitochondrial network protection (MitoTracker staining) in UVA-irradiated fibroblasts; settings: 500 μM, positive control
Description: b)-Normal human fibroblasts (NHF) extracted after plastic surgery from mammary skin dermis of a donor, were cultured as primary monolayers; a)-Fibroblasts were seeded into Petri dishes (at a cell density of 150,000 cells per dish, with a diameter of 60 mm, i.e. 7,700 NHF/cm^2), in the same medium as previously described (complete medium, i.e. with FBS), one day before treatment (incubation at 37° C.; 5% CO2). Each test compound concentration/dose (in one dish each) was then applied for 24 hours (in medium without sera; incubation at 37° C./5% CO2). […] b)-To evaluate the mitochondria staining, cells were incubated with a fluorescent probe (Invitrogen MitoTrackerTM). Cells were observed and photos were taken with x40 objective (Olympus […] microscope and […] Microvision software), with or without appropriate fluorescent filter. The photos allowed the visualization of the mitochondria network or of the whole cells, respectively. • 4)-Evaluation of the Effects on the Metabolic Activity (ATP & NAD^+/NADH Titrations)

[4] = system: NAD+/NADH production by normal human fibroblasts (NHF); experiment: NAD+/NADH titration in fibroblasts, UVA-irradiated or not; settings: Vitamin C 500 μM, UVA-irradiated
Description: as §1

[5] = system: lysosomes network of normal human fibroblasts (NHF); experiment: Lysosomal network protection (LysoTracker staining) in UVA-irradiated fibroblasts; settings: 500 μM
Description: b)-Normal human fibroblasts (NHF) extracted after plastic surgery from mammary skin dermis of a donor, were cultured as primary monolayers; a)-Fibroblasts seeding was carried out as described in Example 2. b)-Cells were then incubated with a fluorescent probe (Invitrogen LysoTrackerTM). They were observed and photographed with x40 objective (Olympus CK40 microscope and […] Microvision software), with or without appropriate fluorescent filter. The photos allowed the visualization respectively of the lysosomes network or of the whole cells. c)-Fluorescence was quantified with Colombus software, by HCS Pharma (Rennes, France), as mean intensity (3 images for each condition). It is the mean value of intensity for each pixel of staining, contained in the cell area stained with LysoTracker (number of cells of each image is taken into account, as the final value is the mean of all cells values on the image). • 4)-Results

[6] = system: Normal human fibroblasts (NHF); experiment: Autophagic activity (MDC assay) in fibroblasts irradiated with blue light; settings: for Decrease of autophagic activity of irradiated fibroblast cells: irradiated at 453 nanometers
Description: • 1)—Background Information The purpose of the study is to evaluate effects of one HCR extracts on autophagic activities of in fibroblast irradiated with 453 nanometers blue light. The cells (normal human fibroblasts or (NHF)) are cultured as primary monolayer. Product to be tested is applied during 24 hours before irradiation and the n the product to be tested is applied during 24 hours . then autophagic activity is measured (MDC). Lysosomes are cytoplasmic organelles that permit recycling of cellular materials that have exceeded their lifetime or are otherwise no longer useful. Their main function is to digest endogeneous or exogeneous substrates (so called autophagy) in eukaryotic cells. Lysosomes break down cellular waste products, fats, carbohydrates, proteins, and other macromolecules into small compounds, which are transferred back into the cytoplasm as new cell-building materials. Indeed, its lipid membrane contains many enzymes, proton pumps and transport proteins. Acid pH is regulated to allow optimum activities of acid hydrolases [1]-[2]. The fluorescent LysoTracker probe is structured to easily insert in living cells (a fluorophore is linked to a weak base that is only partially protonated at neutral pH). This characteristic permits to this labeling/staining to be very selective for acid organelles i.e. the lysosomes. Then, effects of radiations, like blue light for instance, at lysosomal level can be evaluated. Indeed, these radiations lead to free radical formation and affect the normal lysosomes network, its distribution in the cell space. This can be visualized with specific fluorescent probe LysoTracker. Autophagy is an eukaryotic cell process that allow cytoplasmic materials digestion in a vacuole that fuses with the lysosome. Indeed, lysosomes can directly incorporate cytoplasmic fragments (micro-autophagy), or via autophagic vacuoles, named autophagosomes (macro-autophagy, fusion of lysosome and autophagosome is so called autolysosome). Autophagy is an important mechanism that allows the cell to mobilize its energy stocks to defend and destroy its damaged organelles and then avoid serious effects. This process permits elimination and replacement of proteins and non-functional organelles, then to ensure homeostasis. It is an essential cytoprotective mechanism that allows adaptive cell responses to different kinds of stress or damages, as nutritive privation (starvation). So it is necessary to cell survival, but also to other fundamental physiologic phenomena as development, immunity, cell differentiation (including keratinocytes differentiation to corneocytes in the epidermis). It is involved in longevity control, aging, and development of pathologies as cancer or diabetes, infectious, metabolic, or neuro-degenerative diseases. […] Three concentrations of the extract HCR are tested (weight/volume % of dry extract or DE, as it is a liquid extract), each dose being evaluated as quintuplicate (5 wells). Irradiation dose of 453 nm blue light is 40 J/cm^2 (23 mW/cm^2 for 29 minutes). b)—Cells are seeded into 96-wells microplates (at a cell density of 10,000 cells per well, i.e. 30,000 NHF/cm2), 24 hours before treatment (incubation at 37° C./5% CO2). […] Fibroblasts are then treated again with the product (curative effect) for another 24 h (so the total application is 48 h). Cells are seeded in complete medium: Dulbecco's modified Eagle medium or DMEM (Gibco 41966), with antibiotics (Gibco 15140) and 10% of foetal bovine serum or FBS (Gibco 10270). Treatments are done in medium without FBS. Irradiation is done in PBS (phosphate buffer saline). All incubation/treatment times are at 37° C./5% CO2 (except irradiation, done at room temperature). At the end of treatment, wells are delicately rinsed (PBS) and 0.05 mM MDC probe is applied on cells (Sigma 30432) (37° C./5% CO2). After incubation during 30 minutes and washes, fluorescence is measured at 380 nm (excitation) and 525 nm (emission) wavelengths (Tecan Safire II machine). […]

c1ccc2c(c1)cc1ccc3cccc4ccc2c1c34 [BaP, benzo(a)pyrene]
Stimulation of ROS production comparatively to non-stimulated acetone solvent control ([1]; BaP 36 μM): +141%

OO [hydrogen peroxide]
Stimulation of ROS production comparatively to unstimulated control ([1]; hydrogen peroxide 1 mM): +808%

O=C1O[C@H]([C@@H](O)CO)C(O)=C1O [vitamin C, L-ascorbic acid]
ATP synthesis, change compared to irradiated control [2]: +61%
Protection of mitochondria network against UV (MitoTracker images) [3]: effects of UVA were less distinct
NAD+/NADH release by UV-irradiated cells [4]: did not show expected positive effect
LysoTracker fluorescence mean intensity ([5]; highly significant): higher
Protection of lysosomes network against UV (LysoTracker images) ([5]; positive control): diminished the effects of UVA
RFU (means), MDC autophagic activity ([6]; 500 μMoles, irradiated (453 nanometers) NHF): 95 RFU
RFU (means), MDC autophagic activity ([6]; 500 μMoles, non irradiated NHF): 60 ^(***^) RFU
Decrease of autophagic activity of irradiated fibroblast cells ([6]; vitamin C): 14%

CC(=O)Oc1c(C)c(C)c2c(c1C)CCC(C)(CCC[C@H](C)CCC[C@H](C)CCCC(C)C)O2 (stereo partly drawn) [vitamin E, α-tocopherol acetate]
RFU (means), MDC autophagic activity ([6]; 200 μMoles, irradiated (453 nanometers) NHF): 86 ^(*^) RFU
RFU (means), MDC autophagic activity ([6]; 200 μMoles, non irradiated NHF): 76 ^(**^) RFU
Decrease of autophagic activity of irradiated fibroblast cells ([6]; vitamin E): 22%
